Laboratory results from patent US8716440B2, “Method of liberating and recovering peptide” (Sysmex Corporation, priority 2011, dated 2014).
Residues, ends and D or L forms follow the SMILES beside them.

Key:
[1] = target: T1, human serum albumin (HSA) (Homo sapiens, UniProt P02768); assay: Fluorescence titration method, Kd between HSA and peptide; format: binding; conditions: solution in ultrapure water: ACTH partial peptide 34 μM, TMR-ACTH partial peptide 6 μM, HSA 600 μM
T1 construct: purchased Sigma-Aldrich Japan Inc
T1 sequence (P02768 25-609): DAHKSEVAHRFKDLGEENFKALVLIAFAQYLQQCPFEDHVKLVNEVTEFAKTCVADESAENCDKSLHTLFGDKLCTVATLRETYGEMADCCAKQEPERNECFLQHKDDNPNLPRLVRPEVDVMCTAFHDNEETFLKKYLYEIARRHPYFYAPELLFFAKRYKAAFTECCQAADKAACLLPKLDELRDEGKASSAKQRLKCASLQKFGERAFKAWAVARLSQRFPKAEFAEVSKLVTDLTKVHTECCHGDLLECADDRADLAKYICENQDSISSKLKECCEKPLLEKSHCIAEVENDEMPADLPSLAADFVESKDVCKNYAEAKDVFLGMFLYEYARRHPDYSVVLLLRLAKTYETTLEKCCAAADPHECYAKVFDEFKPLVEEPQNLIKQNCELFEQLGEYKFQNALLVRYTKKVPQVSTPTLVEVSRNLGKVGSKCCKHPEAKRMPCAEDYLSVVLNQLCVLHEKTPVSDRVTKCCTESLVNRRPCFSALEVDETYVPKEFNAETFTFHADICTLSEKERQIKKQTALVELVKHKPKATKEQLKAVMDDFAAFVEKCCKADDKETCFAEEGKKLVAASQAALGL
Text: The ACTH is a basic peptide. The used albumin was human serum albumin (HSA, Sigma-Aldrich Japan Inc.).

[2] = target: T2, bovine serum albumin (BSA) (Bos taurus, UniProt P02769); assay: Fluorescence titration method, Kd between BSA and peptide; format: binding
T2 construct: purchased Sigma-Aldrich Japan Inc
T2 sequence (P02769 25-607): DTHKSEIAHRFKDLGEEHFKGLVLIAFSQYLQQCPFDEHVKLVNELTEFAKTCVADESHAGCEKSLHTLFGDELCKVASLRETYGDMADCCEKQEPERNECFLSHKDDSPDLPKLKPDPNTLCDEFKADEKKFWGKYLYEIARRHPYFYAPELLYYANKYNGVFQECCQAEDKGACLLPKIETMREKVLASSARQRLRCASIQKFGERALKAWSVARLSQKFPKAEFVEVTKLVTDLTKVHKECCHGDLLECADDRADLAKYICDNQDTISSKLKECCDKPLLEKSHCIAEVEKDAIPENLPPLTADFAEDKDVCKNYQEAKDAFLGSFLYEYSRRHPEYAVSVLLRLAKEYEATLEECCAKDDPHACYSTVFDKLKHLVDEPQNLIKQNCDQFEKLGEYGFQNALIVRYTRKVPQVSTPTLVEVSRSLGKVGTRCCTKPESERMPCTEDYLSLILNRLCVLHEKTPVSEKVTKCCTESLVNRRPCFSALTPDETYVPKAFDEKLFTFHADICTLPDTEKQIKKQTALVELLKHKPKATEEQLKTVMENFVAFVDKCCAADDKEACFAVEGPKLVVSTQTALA
Text: FITC-SA21 (Biologica Co, Ltd.) in which SA21 consisting of 18 amino acids was labeled with fluorescein isothiocyanate (FITC) (a green fluorescent dye) was used as a peptide. The SA21 is an acidic peptide. The used albumin was BSA (Sigma-Aldrich Japan Inc.).

CSCC[C@H](NC(=O)[C@H](CO)NC(=O)[C@H](Cc1ccc(O)cc1)NC(=O)[C@H](CO)NC(=O)c1ccc2c(c1)C(=O)OC21c2ccc(N(C)C)cc2Oc2cc(N(C)C)ccc21)C(=O)N[C@@H](CCC(=O)O)C(=O)N[C@@H](Cc1c[nH]cn1)C(=O)N[C@@H](Cc1ccccc1)C(=O)N[C@@H](CCCNC(=N)N)C(=O)N[C@@H](Cc1c[nH]c2ccccc12)C(=O)NCC(=O)N[C@@H](CCCCN)C(=O)N1CCC[C@H]1C(=O)N[C@H](C(=O)NCC(=O)N[C@@H](CCCCN)C(=O)N[C@@H](CCCCN)C(=O)N[C@@H](CCCNC(=N)N)C(=O)N[C@@H](CCCNC(=N)N)C(=O)N1CCC[C@H]1C(=O)N[C@H](C(=O)N[C@@H](CCCCN)C(=O)N[C@H](C(=O)N[C@@H](Cc1ccc(O)cc1)C(=O)N1CCC[C@H]1C(=O)O)C(C)C)C(C)C)C(C)C [TMR-ACTH partial peptide]
fraction of peptide forming a complex with the HSA [1]: 98.9%

CC[C@H](C)[C@H](NC(=O)[C@H](CC(C)C)NC(=O)[C@H](CCCNC(=N)N)NC(=S)Nc1ccc2c(c1)C(=O)OC21c2ccc(O)cc2Oc2cc(O)ccc21)C(=O)N[C@@H](CCC(=O)O)C(=O)N[C@@H](CC(=O)O)C(=O)N[C@H](C(=O)N[C@H]1CSSC[C@@H](C(=O)N[C@@H](CC(C)C)C(=O)N[C@@H](Cc2c[nH]c3ccccc23)C(=O)N[C@@H](CCC(=O)O)C(=O)N[C@@H](CC(=O)O)C(=O)N[C@@H](CC(=O)O)C(N)=O)NC(=O)CNC(=O)[C@H](Cc2c[nH]c3ccccc23)NC(=O)[C@H](CCCNC(=N)N)NC(=O)[C@@H]2CCCN2C(=O)[C@H](CC(C)C)NC1=O)[C@@H](C)CC [FITC-SA21] (HELM PEPTIDE1{[O=C1OC2(c3ccc(O)cc3Oc3cc(O)ccc32)c2ccc(NC(=S)[*:2])cc21].R.L.I.E.D.I.C.L.P.R.W.G.C.L.W.E.D.D.[am]}$PEPTIDE1,PEPTIDE1,8:R3-14:R3$$$V2.0; N-terminus and C-terminus assumed)
Kd ([2]; fluorescence titration, read-out: Kd value between the BSA and FITC-SA21): ≤ 1000 nM
fraction of FITC-SA21 forming a complex with albumin ([2]; solution in ultrapure water: FITC-SA21 43 (M, BSA 100 (M)), printed as complex with the HSA): 98.3%
affinity of binding to BSA relative to affinity of binding between the HSA and ACTH partial peptide ([2]; times stronger than HSA/ACTH partial peptide binding): 6 times
